Results from US11897883B1, “Pyrrolo[3,2-c][1,6]naphthyridine-2-carboxylic acid compounds as CK2 inhibitors” (KING FAISAL UNIVERSITY, priority 2023, dated 2024).

Key:
A375 (melanoma) = experiment: In vitro cytotoxic activity MTT assay, A375; format: cell-based; conditions: Homo sapiens, A-375, 96 hours exposure, read-out: IC50, concentration eliciting a 50% inhibition of cell proliferation
Procedure: (§1) Compounds 1-16 were screened for their in vitro cytotoxic activity utilizing a 3-(4,5-dimethyl-thiazol-2-yl)-2,5-diphenyltetrazolium bromide (MTT) assay against selected cancer human cell lines consisting of PC3 (prostate), HCT116 (colon), A375 (melanoma), H1299 (lung), MIAPaCa-2 (pancreas), HL60 (leukemia), MCF7 (breast), MDA-MB-231 (breast) (T. Mosmann, J. Immunol. Meth., 1983, 65, 55-63). The cells were cultured at 37° C. in RMPI1640 medium supplemented with 10% fetal bovine serum, 50 IU/mL penicillin, and 50 μg/mL streptomycin in a 5% CO2 incubator. All cells were sub-cultured 3 times/week by trypsinisation. Viable cells were seeded and allowed to adhere for 12 h before a test drug was added in 96-well plates at an initial density of 1.0×10^5 cells/mL. Tumour cell lines were separately exposed to various concentrations of the tested compounds followed by incubation at a temperature of 37° C. during 96 h inside a medium of fresh RMPI 1640. Cells were subsequently incubated at 37° C. using MTT at 0.5 mg/mL during 4 h. After removal of supernatant, formazan crystals were dissolved in isopropanol and the optical density was measured at 570 nm. CX-4945 was used as a positive control.

MCF7 (breast) = experiment: In vitro cytotoxic activity MTT assay, MCF7; format: cell-based; conditions: Homo sapiens, 96 hours exposure, read-out: IC50, concentration eliciting a 50% inhibition of cell proliferation
Procedure: as §1

MIAPaCa-2 (pancreas) = experiment: In vitro cytotoxic activity MTT assay, MIAPaCa-2; format: cell-based; conditions: Homo sapiens, MIA PaCa-2, 96 hours exposure, read-out: IC50, concentration eliciting a 50% inhibition of cell proliferation
Procedure: as §1

H1299 (lung) = experiment: In vitro cytotoxic activity MTT assay, H1299; format: cell-based; conditions: Homo sapiens, NCI-H1299, 96 hours exposure, read-out: IC50, concentration eliciting a 50% inhibition of cell proliferation
Procedure: as §1

[1] = target: T1, recombinant human CK2 (RRββ-holoenzyme) (Homo sapiens, UniProt P68400); experiment: CK2 Kinase Assay (33P-ATP, substrate peptide RRRDDDSDDD); format: biochemical; conditions: final ATP 15 μM, 10 min at 30 °C; read-out: protein kinase CK2 IC50
T1 construct: purchased Millipore
T1 sequence (P68400 whole entry): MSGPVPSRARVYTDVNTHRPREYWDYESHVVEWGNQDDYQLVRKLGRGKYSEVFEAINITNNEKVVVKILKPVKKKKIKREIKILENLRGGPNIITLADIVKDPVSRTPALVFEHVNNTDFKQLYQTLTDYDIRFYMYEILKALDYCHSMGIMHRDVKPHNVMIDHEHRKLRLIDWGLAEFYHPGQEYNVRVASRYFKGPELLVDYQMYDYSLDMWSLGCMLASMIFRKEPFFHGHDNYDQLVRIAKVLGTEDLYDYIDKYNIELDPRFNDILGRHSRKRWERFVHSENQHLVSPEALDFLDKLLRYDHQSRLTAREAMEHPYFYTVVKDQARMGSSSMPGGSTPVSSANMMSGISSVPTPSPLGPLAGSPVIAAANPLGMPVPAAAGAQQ
T1 sequence (P67870 whole entry partner): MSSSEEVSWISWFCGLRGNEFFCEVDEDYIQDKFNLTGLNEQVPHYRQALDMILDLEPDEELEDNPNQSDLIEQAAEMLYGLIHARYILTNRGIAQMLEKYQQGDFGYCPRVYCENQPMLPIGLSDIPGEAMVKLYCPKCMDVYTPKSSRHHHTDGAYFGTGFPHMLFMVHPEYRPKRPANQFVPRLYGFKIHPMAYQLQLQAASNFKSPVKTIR
Procedure: CK2 Kinase Assay was conducted using the protocol as described in Pierre F. et al.; J. Med. Chem. 2011, 54, 635-654. The tested compounds in aqueous solution were added at a volume of 10 μL to a reaction mixture comprising 10 μL of assay dilution buffer (ADB; 20 mM MOPS, pH 7.2, 25 mM β-glycerol phosphate, 5 mM EGTA, 1 mM sodium orthovanadate, and 1 mM dithiothreitol), 10 μL of substrate peptide (RRRDDDSDDD, dissolved in ADB at a concentration of 1mM), 10 μL of recombinant human CK2 (RRββ-holoenzyme, 25 ng dissolved in ADB; Millipore). Reactions were initiated by the addition of 10 μL of ATP solution (90% 75 mMMgCl2, 75 μM ATP (final ATP concentration:15 μM) dissolved in ADB; 10% [γ-33P] ATP (stock 1 mCi/100 μL; 3000 Ci/mmol (Perkin-Elmer) and maintained for 10 min at 30 ° C. The reactions were quenched with 100 μL of 0.75% phosphoric acid and then transferred to and filtered through a phosphor cellulose filter plate (Millipore). After washing each well five times with 0.75% phosphoric acid, the plate was dried under vacuum for 5 min and, following the addition of 15 μL of scintillation fluid to each well, the residual radioactivity was measured using a Wallac luminescence counter. The IC50 values were derived from eight concentrations of test inhibitors.

PC3 (prostate) = experiment: In vitro cytotoxic activity MTT assay, PC3; format: cell-based; conditions: Homo sapiens, 96 hours exposure, read-out: IC50, concentration eliciting a 50% inhibition of cell proliferation
Procedure: as §1

HL60 (leukemia) = experiment: In vitro cytotoxic activity MTT assay, HL60; format: cell-based; conditions: Homo sapiens, HL-60, 96 hours exposure, read-out: IC50, concentration eliciting a 50% inhibition of cell proliferation
Procedure: as §1

MDA-MB-231 (breast) = experiment: In vitro cytotoxic activity MTT assay, MDA-MB-231; format: cell-based; conditions: Homo sapiens, 96 hours exposure, read-out: IC50, concentration eliciting a 50% inhibition of cell proliferation
Procedure: as §1

HCT116 (colon) = experiment: In vitro cytotoxic activity MTT assay, HCT116; format: cell-based; conditions: Homo sapiens, HCT-116, 96 hours exposure, read-out: IC50, concentration eliciting a 50% inhibition of cell proliferation
Procedure: as §1

O=C(O)c1cc2c(Nc3cccc(Cl)c3)nc3ccncc3c2[nH]1 [Compound 1, 4-((3-chlorophenyl)amino)-1H-pyrrolo[3,2-c][1,6]naphthyridine-2-carboxylic acid] gave an IC50 (A375 (melanoma)) of 2900 nM, an IC50 (MCF7 (breast)) of 4.2 µM and an IC50 (MIAPaCa-2 (pancreas)) of 1100 nM. For the same molecule, the IC50 (H1299 (lung)) was 1400 nM, the IC50 [1] was 26 nM and the IC50 (PC3 (prostate)) was 2100 nM. It also gave an IC50 (HL60 (leukemia)) of 2500 nM, an IC50 (MDA-MB-231 (breast)) of 3.7 µM and an IC50 (HCT116 (colon)) of 1300 nM.
